Experimental data as given in article PMC9943626, “CS27109, A Selective Thyroid Hormone Receptor-β Agonist Alleviates Metabolic-Associated Fatty Liver Disease in Murine Models” (International Journal of Endocrinology, 2023).
Like-named read-outs stand apart in the source and are kept apart here.

How the values were obtained:
[1] = Tissue distribution in SD rat; assay type: in vivo; conditions: for concentration at 2 h / concentration at 8 h: male, 10 mg/kg oral gavage once
Text: [Worded in the source for another organism; this organism is reported under the same test.] Half of mice for each group (n = 3) were sacrificed 2H and 8H after drug administration, respectively. Blood, heart, and liver were collected at each time point. Blood was processed and detected as mentioned previously. The heart and liver were homogenized and added extractant. The protein of tissue samples was precipitated by vortex oscillation, and the supernatant was collected and determined by LC-MS/MS procedures.

PK in the rat = assay type: in vivo, SD rat; conditions: 10 mg/kg oral gavage once
HFD-CHOL hamster model = test: HFD-CHOL hamster model, serum biochemical test; assay type: in vivo, golden hamster; conditions: 10 mg/kg (CS27109-M, MGL-3196) oral once a day 4 weeks, mean ± SD
Method: Hamster study: 58 golden hamsters ♂ aged 6–8 weeks were purchased from Beijing Vital River Laboratory Animal Technology Co., Ltd. 10 animals were kept with a diet of food control as normal control, and the other 48 animals were fed 40% fat and 1.25% cholesterol (HFD-CHOL, D12108C, Research diet) as a model group. […] Animals in the normal and model group were given solvent by oral gavage. All drugs, including solvent, were administered consecutively for 4 weeks and once a day. After sacrifice, blood was collected and serum was isolated for the AST, ALT, TG, TC, LDL-c, and HDL-c test.

HFD SD rat model = test: HFD SD rat model, biochemical, organ weight ratio, liver lipid and liver pathology; assay type: in vivo
Method: SD rat study: 58 SD rats ♂ aged 5–6 weeks were purchased from Beijing Huafukang Biotechnology Co., Ltd. 9 animals were kept with a food control diet as normal control, and the other 49 animals were fed 40% fat, 1.25% cholesterol and 0.5% sodium cholate (HFD, D12109C, SYSE BIO, Changzhou, China) as a model group. […] Animals in the normal and model groups were given solvent by oral gavage. All drugs, including solvent, were administered consecutively for 4 weeks and once a day. After sacrifice, blood was collected and serum was isolated for the AST, ALT, TG, TC, LDL-c, and HDL-c test, and livers and hearts were weighed to calculate the liver weight ratio and the heart weight ratio, respectively. The right lobe of the liver of each rat was harvested for the TG and TC test (A110-1-1 and A111-1-1, Nanjing Jiancheng Institute of Bioengineering, Nanjing, China) according to the manufacturer's instructions. The left lobe of the liver was collected for hematoxylin-eosin staining (H and E staining) to quantify liver steatosis, inflammation, and ballooning.
(§1) The liver samples were fixed in 10% formalin and embedded in paraffin using standard methods. The 4 μm paraffin sections were then assessed for liver histology by H and E staining and liver fibrosis by sirius red staining. The stained sections were panoramic scanned with a NanoZoomer Digital Pathology scanner (S210, Hamamatsu, Japan), and then observed with different visual fields at different magnifications, and scored for different liver lobes in the sections. The total NAS score represents the sum of the scores for steatosis (0–3), lobular inflammation (0–3), and ballooning (0–2), and ranges from 0–8 [30]. VIS7.0 software was used to analyze the area of liver fibrosis in the panoramic scanning SR staining sections, and the percentage of liver fibrosis area in the whole section area was calculated.

WD + CCL4 mouse model = test: WD + CCL4 mouse model, biochemical, liver weight ratio and liver pathology; assay type: in vivo, C57/B6 mouse
Method: C57/B6 mouse study: 61 C57/B6 mice ♂ aged 6–7 weeks were purchased from Beijing Vital River Laboratory Animal Technology Co., Ltd. Six animals were kept with a chow diet as normal control, and the other 55 animals were fed 60% fat diet (Western diet, D12492, Research diet) as the model group. […] Animals in the normal and model groups were given solvent by oral gavage. All drugs, including solvent, were administered consecutively for 4 weeks and once a day. After sacrifice, blood was collected and serum was isolated for the AST, ALT, TG, TC, LDL-c, HDL-c, and CK tests, and the livers were weighed to calculate the liver weight ratio. The left lobe of the liver of each mouse was collected for hematoxylin-eosin staining (H and E staining) and sirius red staining.
as §1

[2] = Observation of diarrhea in treated animals; assay type: in vivo, rodents; conditions: animal studies
[3] = heart, read-out: Heart concentration
[4] = liver, read-out: Liver concentration
[5] = serum, read-out: Serum concentration
[6] = WD + CCL4 mouse, 4 weeks, MGL3196 10 mg/kg, CS27109 high-dose (30 mg/kg), vs model

average of concentration liver/heart ([1]; 10 mg/kg oral, average of 2H and 8H): 22.325
concentration at 2 h [1, 3]: 156 ng/g
concentration at 8 h [1, 3]: 128 ng/g
concentration at 2 h [1, 4]: 3850 ng/g
concentration at 8 h [1, 4]: 2550 ng/g
concentration at 2 h [1, 5]: 1400 ng/mL
concentration at 8 h [1, 5]: 506 ng/mL
PK properties in rat (compared with CS27109) (PK in the rat): slightly higher PK properties
CK activity (WD + CCL4 mouse model; WD + CCL4 mouse serum, 10 mg/kg (CS27109-M, MGL-3196) oral once a day 4 weeks, mean ± SD, model 345 ± 268, normal 334 ± 193): 197 ± 129 U/L
diarrhea in treated animals [2]: exhibit diarrhea
Structure (SMILES): CC(C)c1cc(Oc2c(Cl)cc(-n3nc(C#N)c(=O)[nH]c3=O)cc2Cl)n[nH]c1=O [MGL3196, 2-[3,5-dichloro-4-(5-isopropyl-6-oxo-1,6-dihydropyridazin-3-yloxy)phenyl]-3,5-dio xo-2,3,4,5-tetrahydro[1,2,4]triazine-6-carbonitrile, reference compound]
HDL-c (HFD-CHOL hamster model; model 3.6 ± 1.1, normal 1.6 ± 0.45): 2.9 ± 0.36 mmol/L
LDL-c (HFD-CHOL hamster model; model 17 ± 6.1, normal 1.3 ± 0.54): 8.6 ± 3.3 mmol/L
TG (HFD-CHOL hamster model; model 26 ± 24, normal 2.1 ± 1.1): 5.9 ± 5.6 mmol/L
TC (HFD-CHOL hamster model; model 37 ± 13, normal 3.1 ± 0.72): 18 ± 6.3 mmol/L
ALT (HFD-CHOL hamster model; model 278 ± 174, normal 94 ± 58): 206 ± 47 U/L
AST (HFD-CHOL hamster model; model 638 ± 323, normal 98 ± 45): 752 ± 261 U/L
Liver TC (HFD SD rat model; HFD SD rat liver, 15 mg/kg (CS27109-M, MGL-3196) oral once a day 4 weeks, mean ± SD, model 13 ± 2.2, normal 6.0 ± 0.76): 12 ± 1.7 µmol/g
Liver TG (HFD SD rat model; HFD SD rat liver, 15 mg/kg (CS27109-M, MGL-3196) oral once a day 4 weeks, mean ± SD, model 102 ± 36, normal 0.75 ± 12): 113 ± 38 µmol/g
TG (HFD SD rat model; HFD SD rat serum, 15 mg/kg (CS27109-M, MGL-3196) oral once a day 4 weeks, mean ± SD, model 0.82 ± 0.73, normal 0.53 ± 0.34): 0.11 ± 0.03^∗∗∗ mmol/L
HDL-c (HFD SD rat model; HFD SD rat serum, 15 mg/kg (CS27109-M, MGL-3196) oral once a day 4 weeks, mean ± SD, model 1.2 ± 0.44, normal 1.1 ± 0.13): 0.94 ± 0.26 mmol/L
LDL-c (HFD SD rat model; HFD SD rat serum, 15 mg/kg (CS27109-M, MGL-3196) oral once a day 4 weeks, mean ± SD, model 9.7 ± 6.1, normal 0.28 ± 0.06): 1.1 ± 0.65 mmol/L
TC (HFD SD rat model; HFD SD rat serum, 15 mg/kg (CS27109-M, MGL-3196) oral once a day 4 weeks, mean ± SD, model 20 ± 13, normal 1.5 ± 0.20): 3.3 ± 1.3 mmol/L
ALT (HFD SD rat model; HFD SD rat serum, 15 mg/kg (CS27109-M, MGL-3196) oral once a day 4 weeks, mean ± SD, model 166 ± 95, normal 32 ± 6.8): 74 ± 24 U/L
AST (HFD SD rat model; HFD SD rat serum, 15 mg/kg (CS27109-M, MGL-3196) oral once a day 4 weeks, mean ± SD, model 365 ± 212, normal 103 ± 21): 185 ± 66 U/L
NAS score (HFD SD rat model; HFD SD rat, 4 weeks, 15 mg/kg, vs model): tendency to reduce the NAS score, but without significance
liver steatosis score (H and E) (HFD SD rat model; HFD SD rat, 4 weeks, CS27109 5-45 mg/kg dose-dependent, MGL3196 15 mg/kg, vs model): lessened steatosis
LDL-c (WD + CCL4 mouse model; WD + CCL4 mouse serum, 10 mg/kg (CS27109-M, MGL-3196) oral once a day 4 weeks, mean ± SD, model 1.1 ± 0.35, normal 0.43 ± 0.04): 0.33 ± 0.05 mmol/L
TG (WD + CCL4 mouse model; WD + CCL4 mouse serum, 10 mg/kg (CS27109-M, MGL-3196) oral once a day 4 weeks, mean ± SD, model 1.2 ± 0.34, normal 0.91 ± 0.14): 1.0 ± 0.23 mmol/L
HDL-c (WD + CCL4 mouse model; WD + CCL4 mouse serum, 10 mg/kg (CS27109-M, MGL-3196) oral once a day 4 weeks, mean ± SD, model 1.5 ± 0.25, normal 2.0 ± 0.08): 1.2 ± 0.13 mmol/L
TC (WD + CCL4 mouse model; WD + CCL4 mouse serum, 10 mg/kg (CS27109-M, MGL-3196) oral once a day 4 weeks, mean ± SD, model 4.1 ± 0.97, normal 3.0 ± 0.10): 1.9 ± 0.17 mmol/L
AST (WD + CCL4 mouse model; WD + CCL4 mouse serum, 10 mg/kg (CS27109-M, MGL-3196) oral once a day 4 weeks, mean ± SD, model 10245 ± 4955, normal 116 ± 71): 2178 ± 769 U/L
ALT (WD + CCL4 mouse model; WD + CCL4 mouse serum, 10 mg/kg (CS27109-M, MGL-3196) oral once a day 4 weeks, mean ± SD, model 14003 ± 4205, normal 54 ± 15): 4658 ± 1639 U/L
liver inflammation score (H and E) (WD + CCL4 mouse model; [6]): notable reduction
liver steatosis score (H and E) (WD + CCL4 mouse model; [6]): notable reduction
area of liver fibrosis (sirius red) (WD + CCL4 mouse model; WD + CCL4 mouse, 4 weeks, three doses of CS27109 (3, 10, 30 mg/kg), MGL3196 10 mg/kg, vs model): prominently reduced the area of the fibrosis
